Data from patent publication US20230028463A1, “METHOD FOR PRODUCING ACTINIC RAY-SENSITIVE OR RADIATION-SENSITIVE RESIN COMPOSITION, PATTERN FORMATION METHOD, AND METHOD FOR MANUFACTURING ELECTRONIC DEVICE” (FUJIFILM Corporation, priority 2020, published 2023).

Assay: Solubility of photoacid generator in 100 g of solvent at 25° C.
Format: physicochemical
Conditions: in 100 g of PGME at 25° C.
Procedure: <Solubility (g) of Photoacid Generator in 100 g of Solvent at 25° C.>
“A”: The solubility is more than 3 g
“B”: The solubility is 0.5 to 3 g
“C”: The solubility is less than 0.5 g

c1ccc([S+]2CCCC2)cc1 [B-4]
Solubility (25° C.) of photoacid generator in solvent: A (The solubility is more than 3 g)
